Biological target: human IRAK4 (Homo sapiens (Human), UniProt Q9NWZ3)
Test: IRAK4 kinase inhibition, Transcreener fluorescence polarization ADP assay
Assay type: biochemical
Conditions: recombinant full-length His6-IRAK4; 125 uM ATP; 90 min; Ki computed using ATP Km 642 uM
Description: Compounds were assayed for inhibition of human IRAK4 and IRAK1 catalytic activity using recombinant enzyme produced from insect cells. Full-length IRAK4 protein, carrying an N-terminal His6-Tag, was obtained from Life Technologies (Carlsbad, Calif., USA). The IRAK1 construct was produced internally and was comprised of IRAK1 residues Arg194 to Ser712, preceded by an NH2-terminal His6 tag and the coding sequence for glutathione-S-transferase.

human IRAK4, sequence (Q9NWZ3 whole entry): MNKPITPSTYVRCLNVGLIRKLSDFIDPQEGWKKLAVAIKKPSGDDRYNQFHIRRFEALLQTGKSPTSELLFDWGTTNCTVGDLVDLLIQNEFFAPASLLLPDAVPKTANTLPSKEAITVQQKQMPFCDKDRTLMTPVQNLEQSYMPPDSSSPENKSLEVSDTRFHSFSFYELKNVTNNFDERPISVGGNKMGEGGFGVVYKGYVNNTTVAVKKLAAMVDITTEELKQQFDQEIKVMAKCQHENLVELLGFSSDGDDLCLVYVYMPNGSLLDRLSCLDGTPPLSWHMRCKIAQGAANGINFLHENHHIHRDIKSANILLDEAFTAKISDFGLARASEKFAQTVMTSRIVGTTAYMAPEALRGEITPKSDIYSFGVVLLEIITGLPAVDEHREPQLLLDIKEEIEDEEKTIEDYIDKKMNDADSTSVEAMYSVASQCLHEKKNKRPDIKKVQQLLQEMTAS

Ki [µM] | SMILES
0.0033 | CC1(CO)Cc2cc(NC(=O)c3cnn4cccnc34)c(N3CCN(CC(F)F)CC3)cc2O1 (stereo not shown) [Example 19, N-[6-[4-(2,2-Difluoroethyl)piperazin-1-yl]-2-(hydroxymethyl)-2-methyl-3H-benzofuran-5-yl]pyrazolo[1,5-a]pyrimidine-3-carboxamide]
0.92 | C[C@]1(CO)Cc2cc(NC(=O)c3cnn4cccnc34)c(C(F)(F)F)cc2O1 [Example 71, N-[(2R)-2-(Hydroxymethyl)-2-methyl-6-(trifluoromethyl)-3H-benzofuran-5-yl]pyrazolo[1,5-a]pyrimidine-3-carboxamide]
0.01 | C[C@@]1(CO)CCc2cc(NC(=O)c3cnn4cccnc34)c(N3CCOCC3)cc2O1 (single isomer, unassigned) [Example 436]
0.01 | CC1(C)Cc2cc(NC(=O)c3cnn4cccnc34)c(N3CCC(C(O)C(F)(F)F)CC3)cc2O1 (stereo not shown) [Example 245, N-(2,2-Dimethyl-6-(4-(2,2,2-trifluoro-1-hydroxyethyl)piperidin-1-yl)-2,3-dihydrobenzofuran-5-yl)pyrazolo[1,5-a]pyrimidine-3-carboxamide]
0.005 | C[C@@H](C(N)=O)N1CCN(c2cc3c(cc2NC(=O)c2cnn4cccnc24)CC(C)(C)O3)CC1 [Example 473, N-[6-[4-[(1S)-2-amino-1-methyl-2-oxo-ethyl]piperazin-1-yl]-2,2-dimethyl-3H-benzofuran-5-yl]pyrazolo[1,5-a]pyrimidine-3-carboxamide]
0.014 | CC1(C)Cc2cc(NC(=O)c3cnn4cccnc34)c(OC[C@@H]3[C@H]4CN(CC(F)F)C[C@@H]34)cc2O1 [Example 294, N-(6-(((1R,5S,6R)-3-(2,2-difluoroethyl)-3-azabicyclo[3.1.0]hexan-6-yl)methoxy)-2,2-dimethyl-2,3-dihydrobenzofuran-5-yl)pyrazolo[1,5-a]pyrimidine-3-carboxamide]
0.1 | CC1(C)Cc2cc(NC(=O)c3cnn4cccnc34)c(N3CC4CC3CC4(F)F)cc2O1 (stereo not shown) [Example 193, N-[6-(5,5-difluoro-2-azabicyclo[2.2.1]heptan-2-yl)-2,2-dimethyl-3H-benzofuran-5-yl]pyrazolo[1,5-a]pyrimidine-3-carboxamide]
0.088 | CC1(C)Cc2cc(NC(=O)c3cnn4cccnc34)c(-n3ccnc3)cc2O1 [Example 103, N-(6-imidazol-1-yl-2,2-dimethyl-3H-benzofuran-5-yl)pyrazolo[1,5-a]pyrimidine-3-carboxamide]
0.72 | CC1(O)CN(c2cc3c(cc2NC(=O)c2cnn4cccnc24)CC(C)(C)O3)C1 [Example 105, N-[6-(3-hydroxy-3-methyl-azetidin-1-yl)-2,2-dimethyl-3H-benzofuran-5-yl]pyrazolo[1,5-a]pyrimidine-3-carboxamide]
0.0024 | CN1CCC(N2Cc3cc(NC(=O)c4cnn5cccnc45)c(N4CCN(CC(N)=O)CC4)cc3C2=O)CC1 [Example 281, N-[6-[4-(2-Amino-2-oxo-ethyl)piperazin-1-yl]-2-(1-methyl-4-piperidyl)-1-oxo-isoindolin-5-yl]pyrazolo[1,5-a]pyrimidine-3-carboxamide]
0.047 | O=C(CN1CCN(c2cc3c(cc2NC(=O)c2cnn4cccnc24)CC2(CCNCC2)O3)CC1)NC1CC1 [Example 375, N-(6-(4-(2-(Cyclopropylamino)-2-oxoethyl)piperazin-1-yl)-3H-spiro[benzofuran-2,4′-piperidin]-5-yl)pyrazolo[1,5-a]pyrimidine-3-carboxamide]
0.0026 | CC1(C)Cc2cc(NC(=O)c3cnn4cccnc34)c(N3CCN(CC#N)CC3)cc2O1 [Example 456, N-(6-(4-(cyanomethyl)piperazin-1-yl)-2,2-dimethyl-2,3-dihydrobenzofuran-5-yl)pyrazolo[1,5-a]pyrimidine-3-carboxamide]
0.0011 | CC1(C)Cc2cc(NC(=O)c3cnn4cc(C(N)=O)cnc34)c(N3CCOCC3)cc2O1 [Example 491, N^3-(2,2-dimethyl-6-morpholino-2,3-dihydrobenzofuran-5-yl)pyrazolo[1,5-a]pyrimidine-3,6-dicarboxamide]
0.048 | CC1(C)Cc2cc(NC(=O)c3cnn4cccnc34)c(N3CCN(CC(=O)N4CCOCC4)CC3)cc2O1 [Example 228, N-(2,2-Dimethyl-6-(4-(2-morpholino-2-oxoethyl)piperazin-1-yl)-2,3-dihydrobenzofuran-5-yl)pyrazolo[1,5-a]pyrimidine-3-carboxamide]
0.0087 | CC1(C)Cc2cc(NC(=O)c3cnn4cccnc34)c(O[C@H]3CC[C@@H](O)CC3)cc2O1 [Example 64, Cis-N-[6-(4-hydroxycyclohexoxy)-2,2-dimethyl-3H-benzofuran-5-yl]pyrazolo[1,5-a]pyrimidine-3-carboxamide]
0.025 | CC1(C)Cc2cc(NC(=O)c3cnn4cccnc34)c(N3CCCN(CC(F)F)CC3)cc2O1 [Example 149, N-(6-(4-(2,2-difluoroethyl)-1,4-diazepan-1-yl)-2,2-dimethyl-2,3-dihydrobenzofuran-5-yl)pyrazolo[1,5-a]pyrimidine-3-carboxamide]
0.51 | CC1(C)Oc2cc(NC(=O)c3cnn4cccnc34)c(N3CCOCC3)cc2C1O (stereo not shown) [Example 358, N-(3-Hydroxy-2,2-dimethyl-5-morpholino-2,3-dihydrobenzofuran-6-yl)pyrazolo[1,5-a]pyrimidine-3-carboxamide]
0.011 | C[C@H](O)[C@@H](F)CN1Cc2cc(NC(=O)c3cnn4cccnc34)c(N3CCOCC3)cc2C1=O [Example 561, N-(2-((2S,3S)-2-fluoro-3-hydroxybutyl)-6-morpholino-1-oxoisoindolin-5-yl)pyrazolo[1,5-a]pyrimidine-3-carboxamide]
0.003 | CC1(C)Cc2cc(NC(=O)c3cnn4cccnc34)c(N3CCN(CCn4ccnc4)CC3)cc2O1 [Example 231, N-(6-(4-(2-(1H-Imidazo1-1-yl)ethyl)piperazin-1-yl)-2,2-dimethyl-2,3-dihydrobenzofuran-5-yl)pyrazolo[1,5-a]pyrimidine-3-carboxamide]
0.0024 | CC1(C)Cc2cc(NC(=O)c3cnn4cccnc34)c(N3CCC4(CCOC4)CC3)cc2O1 [Example 106, N-(2,2-dimethyl-6-(2-oxa-8-azaspiro[4.5]decan-8-yl)-2,3-dihydrobenzofuran-5-yl)pyrazolo[1,5-a]pyrimidine-3-carboxamide]
0.075 | O=C(Nc1cc2c(cc1N1CCOCC1)C(=O)N(CC1(CO)COC1)C2)c1cnn2cccnc12 [Example 268, N-[2-[[3-(Hydroxymethyl)oxetan-3-yl]methyl]-6-morpholino-1-oxo-isoindolin-5-yl]pyrazolo[1,5-a]pyrimidine-3-carboxamide]
0.026 | O=C1COc2cc(N3CCC(CO)CC3)c(NC(=O)c3cnn4cccnc34)cc2N1 [Example 2, N-(7-(4-(Hydroxymethyl)piperidin-1-yl)-3-oxo-3,4-dihydro-2H-benzo[b][1,4]oxazin-6-yl)pyrazolo[1,5-a]pyrimidine-3-carboxamide]
0.0054 | CC1(C)Cc2cc(NC(=O)c3cnn4cccnc34)c(N3CC4C(CO)C4C3)cc2O1 (stereo not shown) [Example 215, N-(6-(6-(hydroxymethyl)-3-azabicyclo[3.1.0]hexan-3-yl)-2,2-azabicyclo[3.1.0]dimethyl-2,3-dihydrobenzofuran-5-yl)pyrazolo[1,5-a]pyrimidine-3-carboxamide]
0.0096 | C[C@@]1(CO)Cc2cc(NC(=O)c3cnn4cccnc34)c(N3CC[C@@H](F)C3)cc2O1 [Example 59, N-[(2S)-6-[(3R)-3-Fluoropyrrolidin-1-yl]-2-(hydroxymethyl)-2-methyl-3H-benzofuran-5-yl]pyrazolo[1,5-a]pyrimidine-3-carboxamide]
0.015 | CC1(C)Cc2cc(NC(=O)c3cnn4cccnc34)c(N3C[C@@H](F)[C@@H](F)C3)cc2O1 [Example 203, N-(6-((3R,4S)-3,4-difluoropyrrolidin-1-yl)-2,2-dimethyl-2,3-dihydrobenzofuran-5-yl)pyrazolo[1,5-a]pyrimidine-3-carboxamide]
0.006 | O=C(Nc1cc2c(cc1N1CCOCC1)C(=O)N(CC1CCCCO1)C2)c1cnn2cccnc12 (stereo not shown) [Example 257, N-[6-Morpholino-1-oxo-2-(tetrahydropyran-2-ylmethyl)isoindolin-5-yl]pyrazolo[1,5-a]pyrimidine-3-carboxamide]
0.0014 | CC(C)(O)[C@H](F)CN1Cc2cc(NC(=O)c3cnn4cccnc34)c(N3CCC(C#N)CC3)cc2C1=O [Example 274, (R)-N-(6-(4-cyanopiperidin-1-yl)-2-(2-fluoro-3-hydroxy-3-methylbutyl)-1-oxoisoindolin-5-yl)pyrazolo[1,5-a]pyrimidine-3-carboxamide]
0.056 | CNC(=O)[C@H]1[C@@H]2CN(c3cc4c(cc3NC(=O)c3cnn5cccnc35)CC(C)(C)O4)C[C@@H]21 [Example 212, N-(2,2-dimethyl-6-((1R,5S,6r)-6-(methylcarbamoyl)-3-azabicyclo[3.1.0]hexan-3-yl)-2,3-dihydrobenzofuran-5-yl)pyrazolo[1,5-a]pyrimidine-3-carboxamide]
0.0088 | CSCCN1CCN(c2cc3c(cc2NC(=O)c2cnn4cccnc24)CC(C)(C)O3)CC1 [Example 454, N-(2,2-dimethyl-6-(4-(2-(methylthio)ethyl)piperazin-1-yl)-2,3-dihydrobenzofuran-5-yl)pyrazolo[1,5-a]pyrimidine-3-carboxamide]
0.022 | CC1(C)Cc2cc(NC(=O)c3cnn4cccnc34)c(N3C[C@H]4CCC(F)(F)[C@H]4C3)cc2O1 [Example 200, N-(6-((3aR,6aS)-4,4-difluorohexahydrocyclopenta[c]pyrrol-2(1H)-yl)-2,2-dimethyl-2,3-dihydrobenzofuran-5-yl)pyrazolo[1,5-a]pyrimidine-3-carboxamide]

SMILES | Ki [µM]
CC(C)(O)[C@]1(C)Cc2cc(NC(=O)c3cnn4cccnc34)c(N3CCN(CC(N)=O)CC3)cc2O1 [Example 524, N-[(2S)-6-[4-(2-amino-2-oxo-ethyl)piperazin-1-yl]-2-(1-hydroxy-1-methyl-ethyl)-2-methyl-3H-benzofuran-5-yl]pyrazolo[1,5-a]pyrimidine-3-carboxamide] | 0.0041
